In patent US20230346796A1 (priority 2010, published 2023):
≈ marks a conversion by molar mass, not a printed value. Where “and” joins values, the source holds several entries; their conditions need not be identical. Equal values may be shown once. Read-outs that look alike come from different tables or passages of the source.

What was measured:
[1] = system: patients undergoing a colonoscopy; details: for Success rate n/N (%): Phase IIb (Study CNS7056-004); for Time to ready for discharge, Mean (SD): after last injection, first of three consecutive Aldrete scores of ≥ 9; for Time to ready for discharge, Mean (SD) / Time to fully alert, Mean (SD): ITT population; for Time to fully alert, Mean (SD): first of three consecutive MOAA/S scores of 5 after the last injection; for Time to Procedure Start, mean (SD): after initial dose
[2] = human, in vivo
[3] = human, in vivo; remark: listed apart in the source
[4] = Physiologically-based population pharmacokinetic analysis of CNS 7056 (Studies CNS 7056-001 and CNS 7056-002); details: for V3: arterial; for clearance: human, plasma, intravenous
[5] = system: healthy volunteers and patients undergoing a colonoscopy; experiment: animal or person; assay type: in vivo, human; details: for EC50: Homo sapiens, read-out: EC50, theta (RSE%)
procedural sedation [6] = details: Phase II, cited from earlier work
procedural sedation [7] = details: Phase III, cited from earlier work
[8] = highest dose regimen (8.0/3.0 mg)
[9] = lowest dose regimen (5.0/3.0 mg)
[10] = middle dose regimen (7.0/2.0 mg)
[11] = Run 142S, Lung/Central, 3 compartments
[12] = Run 144S, Lung/Liver, 4 compartments

## COC(=O)CC[C@@H]1N=C(c2ccccn2)c2cc(Br)ccc2-n2c(C)cnc21 [CNS 7056, 3-[(4S)-8-bromo-1-methyl-6-(2-pyridinyl)-4H-imidazo[1,2-a][1,4]benzodiazepin-4-yl] propionic methyl ester]
[1]; 7.0 mg initial / 2.0 mg top-ups (middle dose regimen), 40 patients
  Success rate n/N (%) (ITT): 38/40 (95.0%), p = 0.025
[1]; 5.0/3.0 mg
  Success rate n/N (%): 39/40 (97.5%)
  Time to ready for discharge, Mean (SD): 13.5 (4.83) mins
  Time to fully alert, Mean (SD): 13.3 (7.21) mins
[1]; 5.0/3.0
  Time to Procedure Start, mean (SD): 2.65 (1.42) minutes
[1]; 7.0/2.0 mg
  Success rate n/N (%): 38/40 (95.0%)
  Time to Procedure Start, mean (SD): 3.03 (2.17) minutes
  Time to ready for discharge, Mean (SD): 14.0 (6.28) mins
  Time to fully alert, Mean (SD): 11.3 (5.69) mins
[1]; 8.0/3.0 mg
  Success rate n/N (%): 37/40 (92.5%)
  Time to Procedure Start, mean (SD): 2.23 (1.44) minutes
  Time to ready for discharge, Mean (SD): 16.8 (7.54) mins
  Time to fully alert, Mean (SD): 13.6 (7.48) mins
[1]; [8]
  recovery to fully alert: 13.6 min
  time to discharge: 16.8 min
[1]; human, in vivo
  related AESIs (adverse events of special interest): 10
[1]; in vivo
  Success rate n/N (%) (ITT): 95%
  patients requiring manual or mechanical ventilation: no patient required manual or mechanical ventilation
  time to fully alert compared to Midazolam: shorter
[1]; [9]
  recovery to fully alert: 13.3 min
  time to discharge: 13.5 min
[1]; [10]
  recovery to fully alert: 11.3 min
  time to discharge: 14 min
[2]
  V4: 21.59 I
[3]
  Body weight as predictor of systemic clearance: not a statistically significant predictor
[4]; Run 128S, Lung, 3 compartments
  Blood/Plasma Cardiac Flow, theta (RSE%): 173 (3.37) l/h
  Central Volume, eta IIV (RSE%): 146.9 (52.9) %
  Central Volume, theta (RSE%): 1.71 (15.2) I
  Deep Volume(5), theta (RSE%): 23.4 (4.57) I
  Deep Volume, eta IIV (RSE%): 22.55 (9.94) %
  Inter-Tissue Clearance(4), theta (RSE%): 74.6 (3.29) I/h
  Inter-Tissue Clearance(5), theta (RSE%): 25.7 (6.18) I/h
  Peripheral Volume(4), theta (RSE%): 13.5 (9.18) I
  Peripheral Volume, eta IIV (RSE%): 50.10 (18.0) %
  Pulmonary Clearance, eta IIV (RSE%): 14.35 (6.07) %
  Pulmonary Clearance, theta (RSE%): 49.1 (2.02) I/h
[4]; Run 135S, Lung, 4 compartments
  Blood/Plasma Cardiac Flow, theta (RSE%): 174 (3.59) l/h
  Central Volume, eta IIV (RSE%): 190.2 (66.8) %
  Central Volume, theta (RSE%): 1.24 (19.3) I
  Deep Volume(5), theta (RSE%): 23.8 (4.78) I
  Deep Volume, eta IIV (RSE%): 23.44 (10.3) %
  Deeper Volume(6), theta (RSE%): 12 (20.4) I
  Inter-Tissue Clearance(4), theta (RSE%): 68.5 (5.45) I/h
  Inter-Tissue Clearance(5), theta (RSE%): 42 (5.57) I/h
  Inter-Tissue Clearance(6), theta (RSE%): 3.12 (13.2) I/h
  Peripheral Volume(4), theta (RSE%): 8.14 (12.8) I
  Peripheral Volume, eta IIV (RSE%): 71.40 (25.4) %
  Pulmonary Clearance, eta IIV (RSE%): 14.42 (6.13) %
  Pulmonary Clearance, theta (RSE%): 48.7 (2.00) I/h
[4]; [11]
  Blood/Plasma Cardiac Flow, theta (RSE%): 177 (3.54) l/h
  Central Volume, eta IIV (RSE%): 143.6 (52.2) %
  Central Volume, theta (RSE%): 1.93 (15.8) I
  Deep Volume(5), theta (RSE%): 23.1 (4.58) I
  Deep Volume, eta IIV (RSE%): 22.59 (10.0) %
  Extra-pulmonary Clearance, theta (RSE%): 8.53 (52.4) I/h
  Inter-Tissue Clearance(4), theta (RSE%): 72.4 (3.61) I/h
  Inter-Tissue Clearance(5), theta (RSE%): 25.3 (6.16) I/h
  Peripheral Volume(4), theta (RSE%): 13.4 (9.32) I
  Peripheral Volume, eta IIV (RSE%): 50.48 (18.2) %
  Pulmonary Clearance, eta IIV (RSE%): 17.12 (8.97) %
  Pulmonary Clearance, theta (RSE%): 44.5 (6.11) I/h
[4]; [12]
  Blood/Plasma Cardiac Flow, theta (RSE%): 175 (2.68) l/h
  Central Volume, eta IIV (RSE%): 368.5 (105.) %
  Central Volume, theta (RSE%): 0.834 (15.8) I
  Deep Volume(5), theta (RSE%): 22.7 (5.28) I
  Deep Volume, eta IIV (RSE%): 24.10 (10.9) %
  Deeper Volume(6), theta (RSE%): 10.9 (16.7) I
  Extra-pulmonary Clearance, theta (RSE%): 6.15 (49.7) I/h
  Inter-Tissue Clearance(4), theta (RSE%): 46.2 (7.27) I/h
  Inter-Tissue Clearance(5), theta (RSE%): 40 (5.12) I/h
  Inter-Tissue Clearance(6), theta (RSE%): 3.07 (15.1) I/h
  Peripheral Volume(4), theta (RSE%): 6.47 (13.5) I
  Peripheral Volume, eta IIV (RSE%): 90.06 (30.2) %
  Pulmonary Clearance, eta IIV (RSE%): 16.22 (7.32) %
  Pulmonary Clearance, theta (RSE%): 45.0 (4.24) I/h
[4]; 0.65 x weight/70, Geom. Mean (Typical Value)
  V3: 0.717 I
[4]; 0.65 x weight/70, Subject 1210
  V3: 0.786 I
[4]; 0.65 × weight/70, Geom. Mean (Typical Value)
  V3: 0.717 L
[4]; 0.65 × weight/70, Subject 1210
  V3: 0.786 L
[4]; both, Clearance, Geom. Mean (Typical Value)
  clearance: 819 mL/min
[4]; both, systemic clearance
  clearance: ~1000 mL/min
[4]; Clearance, Subject 1210
  clearance: 732 mL/min
[4]; modelling
  contribution of the liver to clearance: ~10%
  pulmonary extraction ratio, and first-pass metabolism: approximately 28%
[4]; peripheral, Subject 1210
  V4: 21.59 L
[4]; typical single dose 7 mg
  systemic exposure: approximately 0.12 mcg.h/ml
[5]; 1 min
  EC50: 0.332 µg/mL (≈ 0.756 µM)
[5]; 2 min
  EC50: 0.325 µg/mL (≈ 0.74 µM)
[5]
  EC50: 0.369 µg/mL (≈ 0.84 µM)
[5]; in vivo
  EMAX: 5.0
  EMAX, fitted theta (RSE%): 4.88 (1.20) and 4.85 (0.87)
  EMIN (first line so headed), eta IIV (RSE%): 29.73 (15.2) and 28.87 (11.7)
  EMIN (second line so headed), eta IIV (RSE%): 94.18 (38.7)
  Hill Coefficient (γ), theta (RSE%): 3.16 (8.82) and 4.64 (8.81) and 3.92 (6.76) and 3.9 (7.10) and 3.93 (6.81)
  Hill Coefficient, eta IIV (RSE%): 54.72 (24.0) % and 57.77 (24.8) % and 50.35 (22.3) % and 51.71 (22.7) % and 48.59 (21.4) % and 59.37 (25.3) %
  Hill coefficient: 4.03 and 6.627
  Hill coefficient, eta IIV (RSE%): 53.17 (23.0) and 69.49 (30.2)
  Hill coefficient, theta (RSE%): 4.20 (7.47) and 4.62 (8.41)
  IIV for all three pharmacodynamic parameters (EC50, ke0, Hill coefficient): approximately 40%
  increase in EC50 caused by scoping-factor: 10-12%
  increase in EC50 during one- and two-minute spikes of increased MOAA/S score: approximately 30%
  ke0: 13.3 h⁻¹ and 12.17 h⁻¹
  typical Hill coefficient: 4.03

## Cc1ncc2n1-c1ccc(Cl)cc1C(c1ccccc1F)=NC2 [Midazolam, reference compound]
[1]; 2.5/1.0 mg
  patients who did not respond to treatment and received Propofol as rescue medication: 25%
  Success rate n/N (%): 30/40 (75.0%)
  Time to Procedure Start, mean (SD): 4.80 (3.19) minutes
  Time to ready for discharge, Mean (SD): 17.1 (7.33) mins
  Time to fully alert, Mean (SD): 15.2 (7.43) mins
Procedural sedation [6]; 0.02 mg/kg
  Success rate n/N (%): 21/26 (80.8%)
Procedural sedation [7]; 0.02 mg/kg
  Success rate n/N (%): 36/52 (69.2%)

## CC(C)c1cccc(C(C)C)c1OCOP(=O)(O)O [Fospropofol]
Procedural sedation [6]; (labelled dose)
  Success rate n/N (%): 18/26 (69.2%)
Procedural sedation [7]; 6.5 mg/kg (labelled dose)
  Success rate n/N (%): 137/158 (86.7%)
